≈ marks a conversion by molar mass, not a printed value.
Experiments:
[1] = biological target: T1, PBP3 from Pseudomonas aeruginosa (PAO1) (Pseudomonas aeruginosa, UniProt G3XD46); experiment: Bocillin-FL fluorescence polarization competition binding, P. aeruginosa PBP3; conditions: Binding affinity to P. aeruginosa PBP3; fluorescence polarization competition binding assay using Bocillin-FL; read-out: P. aeruginosa PBP3 Potency
T1 construct: made in house
Procedure, shortened: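 Purified PBP was preincubated with inhibitor (E. coli PBP3 1.5 μM, 30 min; P. aeruginosa PBP3 0.75 μM, A. baumannii PBP3 0.2 μM and PBP1a 1 μM, 15 min), then Bocillin-FL (0.1 μM; 0.05 μM for PBP1a) added and FP read up to 60 min. EC50 = 50% loss of bound probe.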

A. baumannii PBP1a = biological target: T2, A. baumannii PBP1a (Acinetobacter baumannii, UniProt A0ABX6CK30); experiment: Bocillin-FL competition binding via gel filtration, A. baumannii PBP1a; conditions: competition binding assay using Bocillin-FL via gel filtration; read-out: A. baumannii PBP1a Potency
T2 sequence (A0ABX6CK30 1-851): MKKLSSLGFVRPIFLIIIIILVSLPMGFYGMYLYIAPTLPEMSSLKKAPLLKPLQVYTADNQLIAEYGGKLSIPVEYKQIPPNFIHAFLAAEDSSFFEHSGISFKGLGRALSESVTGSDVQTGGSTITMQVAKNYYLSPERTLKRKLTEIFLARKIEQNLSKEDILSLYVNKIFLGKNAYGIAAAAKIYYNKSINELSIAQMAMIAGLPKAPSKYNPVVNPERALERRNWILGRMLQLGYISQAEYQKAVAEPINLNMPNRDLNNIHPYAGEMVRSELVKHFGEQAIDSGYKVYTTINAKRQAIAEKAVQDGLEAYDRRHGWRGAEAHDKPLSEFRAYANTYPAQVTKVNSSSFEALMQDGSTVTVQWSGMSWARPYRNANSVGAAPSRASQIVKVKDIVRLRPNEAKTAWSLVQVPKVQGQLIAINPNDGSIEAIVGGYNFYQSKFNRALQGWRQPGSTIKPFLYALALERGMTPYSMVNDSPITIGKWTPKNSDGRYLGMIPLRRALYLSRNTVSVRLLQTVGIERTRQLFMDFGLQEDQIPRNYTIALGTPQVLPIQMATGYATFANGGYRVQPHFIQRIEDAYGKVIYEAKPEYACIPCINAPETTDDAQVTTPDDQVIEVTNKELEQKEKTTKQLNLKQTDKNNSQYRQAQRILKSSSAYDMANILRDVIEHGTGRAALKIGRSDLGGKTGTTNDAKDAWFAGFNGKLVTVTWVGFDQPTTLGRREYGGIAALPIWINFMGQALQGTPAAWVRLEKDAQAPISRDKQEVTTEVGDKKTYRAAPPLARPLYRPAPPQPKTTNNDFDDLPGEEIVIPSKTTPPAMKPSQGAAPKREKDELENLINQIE
Procedure, shortened: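 Competitive equilibrium binding; reporter Bocillin-FL. PBP + inhibitor (titration) pre-incubated → Bocillin-FL, 15 min → gel filtration → fluorescence. EC50 from Hill fit of fraction bound vs [inhibitor].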

P. aeruginosa CDC-0054 = experiment: microbe, parasite or virus in culture; format: cell-based; conditions: Pseudomonas aeruginosa, CDC0054, read-out: Minimum inhibitory concentration, P. aeruginosa CDC-0054
A. baumannii CDC-0083 = experiment: microbe, parasite or virus in culture; format: cell-based; conditions: Acinetobacter baumannii, CDC0083, read-out: MIC, A. baumannii CDC-0083
P. aeruginosa CDC-0110 = experiment: microbe, parasite or virus in culture; format: cell-based; conditions: Pseudomonas aeruginosa, CDC0110, read-out: Minimum inhibitory concentration, P. aeruginosa CDC-0110

T1 sequence (G3XD46 whole entry): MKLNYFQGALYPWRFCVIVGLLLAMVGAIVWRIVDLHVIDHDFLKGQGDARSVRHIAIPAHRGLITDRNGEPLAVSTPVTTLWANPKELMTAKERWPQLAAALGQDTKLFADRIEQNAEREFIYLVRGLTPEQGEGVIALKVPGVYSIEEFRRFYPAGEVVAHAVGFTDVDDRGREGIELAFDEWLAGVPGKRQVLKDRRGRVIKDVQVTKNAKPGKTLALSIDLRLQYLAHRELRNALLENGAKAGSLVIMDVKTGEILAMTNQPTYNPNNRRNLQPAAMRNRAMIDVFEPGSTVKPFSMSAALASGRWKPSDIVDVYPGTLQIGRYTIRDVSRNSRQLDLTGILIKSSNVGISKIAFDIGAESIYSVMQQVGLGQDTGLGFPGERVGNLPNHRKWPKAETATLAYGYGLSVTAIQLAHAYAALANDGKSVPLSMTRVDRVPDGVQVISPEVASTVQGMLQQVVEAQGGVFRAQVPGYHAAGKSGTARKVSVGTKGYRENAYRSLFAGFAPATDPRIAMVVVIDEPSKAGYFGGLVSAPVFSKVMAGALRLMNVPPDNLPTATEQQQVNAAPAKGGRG

Compound	IC50 [1] [µM]	EC50 (A. baumannii PBP1a) [µM]	MIC (P. aeruginosa CDC-0054) [µg/mL]	MIC (A. baumannii CDC-0083) [µg/mL]	MIC (P. aeruginosa CDC-0110) [µg/mL]
O=C(NCCCN1CCN(C(=O)NC(C(=O)N[C@H]2Cc3ccc(F)c(C(=O)O)c3OB2O)c2cc(F)c(O)c(O)c2Cl)C(=O)C1=O)c1cc(F)ncc1F (mixture of isomers) [Example 405]	< 10	10 to 50	2 to 4	< 1	2 to 4
O=C(NCCCN1CCN(C(=O)N[C@@H](C(=O)N[C@H]2Cc3ccc(F)c(C(=O)O)c3OB2O)c2cc(F)c(O)c(O)c2Cl)C(=O)C1=O)c1cc(F)nc(F)c1 (racemic) [Example 401]	< 10	< 10	< 1	2 to 4 (≈ 2.56 to 5.12 µM)	< 1
O=C(NCCCN1CCN(C(=O)N[C@@H](C(=O)N[C@H]2Cc3ccc(F)c(C(=O)O)c3OB2O)c2cc(F)c(O)c(O)c2Cl)C(=O)C1=O)c1ccc(O)cc1F (racemic) [Example 417]	< 10	10 to 50	8 to 16 (≈ 10.3 to 20.6 µM)	> 128	32 to 64 (≈ 41.1 to 82.3 µM)
O=C(NCCCN1CCN(C(=O)N[C@@H](C(=O)N[C@H]2Cc3ccc(F)c(C(=O)O)c3OB2O)c2cc(F)c(O)c(O)c2Cl)C(=O)C1=O)c1c(F)cc(O)cc1F (racemic) [Example 420]	< 10	10 to 50	2 to 4 (≈ 2.51 to 5.03 µM)	> 128	< 1
O=C(NCCCN1CCN(C(=O)N[C@@H](C(=O)N[C@H]2Cc3ccc(F)c(C(=O)O)c3OB2O)c2cc(F)c(O)c(O)c2Cl)C(=O)C1=O)c1ccc(O)cc1Cl (single isomer, unassigned) [Example 471]	< 10	< 10	< 1	> 128	< 1
O=C(NCCCN1CCN(C(=O)N[C@H](C(=O)N[C@H]2Cc3ccc(F)c(C(=O)O)c3OB2O)c2cc(F)c(O)c(O)c2Cl)C1=O)Nc1ccc(O)cc1 [Example 283, (R)-3-((S)-2-(2-chloro-5-fluoro-3,4-dihydroxyphenyl)-2-(3-(3-(3-(4-hydroxyphenyl)ureido)propyl)-2-oxoimidazolidine-1-carboxamido)acetamido)-7-fluoro-2-hydroxy-3,4-dihydro-2H-benzo[e][1,2]oxaborinine-8-carboxylic acid]	50 to 250		> 128	> 128	> 128
O=C(NCCS(=O)(=O)N1CCN(C(=O)N[C@H](C(=O)N[C@H]2Cc3ccc(F)c(C(=O)O)c3OB2O)c2cc(F)c(O)c(O)c2Cl)C1=O)c1ccc(O)cc1 [Example 286, (R)-3-((S)-2-(2-chloro-5-fluoro-3,4-dihydroxyphenyl)-2-(3-((2-(4-hydroxybenzamido)ethyl)sulfonyl)-2-oxoimidazolidine-1-carboxamido)acetamido)-7-fluoro-2-hydroxy-3,4-dihydro-2H-benzo[e][1,2]oxaborinine-8-carboxylic acid]	> 250		> 128	> 128	> 128
O=C(NCCS(=O)(=O)N1CCN(C(=O)NC(C(=O)N[C@H]2Cc3ccc(F)c(C(=O)O)c3OB2O)c2cc(F)c(O)c(O)c2Cl)C1=O)c1ccncc1 (stereo partly drawn) [Example 288, (3R)-3-(2-(2-chloro-5-fluoro-3,4-dihydroxyphenyl)-2-(3-((2-(isonicotinamido)ethyl)sulfonyl)-2-oxoimidazolidine-1-carboxamido)acetamido)-7-fluoro-2-hydroxy-3,4-dihydro-2H-benzo[e][1,2]oxaborinine-8-carboxylic acid]	< 10		2 to 4 (≈ 2.61 to 5.22 µM)	< 1	2 to 4 (≈ 2.61 to 5.22 µM)
O=C(NCCS(=O)(=O)N1CCN(C(=O)N[C@@H](C(=O)N[C@H]2Cc3ccc(F)c(C(=O)O)c3OB2O)c2cc(F)c(O)c(O)c2Cl)C1=O)Nc1ccncc1 [Example 290, (R)-3-((R)-2-(2-chloro-5-fluoro-3,4-dihydroxyphenyl)-2-(2-oxo-3-((2-(3-(pyridin-4-yl)ureido)ethyl)sulfonyl)imidazolidine-1-carboxamido)acetamido)-7-fluoro-2-hydroxy-3,4-dihydro-2H-benzo[e][1,2]oxaborinine-8-carboxylic acid]	< 10		2 to 4 (≈ 2.56 to 5.12 µM)	< 1	< 1
O=C(NCCCS(=O)(=O)N1CCN(C(=O)NC(C(=O)N[C@H]2Cc3ccc(F)c(C(=O)O)c3OB2O)c2cc(F)c(O)c(O)c2Cl)C1=O)Nc1ccncc1 (stereo partly drawn) [Example 291, (3R)-3-(2-(2-chloro-5-fluoro-3,4-dihydroxyphenyl)-2-(2-oxo-3-((3-(3-(pyridin-4-yl)ureido)propyl)sulfonyl)imidazolidine-1-carboxamido)acetamido)-7-fluoro-2-hydroxy-3,4-dihydro-2H-benzo[e][1,2]oxaborinine-8-carboxylic acid]	< 10		2 to 4 (≈ 2.51 to 5.03 µM)	< 1	2 to 4 (≈ 2.51 to 5.03 µM)
O=C(O)c1c(F)ccc2c1OB(O)[C@@H](NC(=O)C(NC(=O)N1CCN(Cc3ccc(O)c(O)c3Cl)C(=O)C1=O)c1cc(F)c(O)c(O)c1Cl)C2 (stereo partly drawn) [Example 292, (3R)-3-(2-(4-(2-chloro-3,4-dihydroxybenzyl)-2,3-dioxopiperazine-1-carboxamido)-2-(2-chloro-5-fluoro-3,4-dihydroxyphenyl)acetamido)-7-fluoro-2-hydroxy-3,4-dihydro-2H-benzo[e][1,2]oxaborinine-8-carboxylic acid]	< 10		< 1	> 128	> 128
O=C(NCCCN1CCN(C(=O)N[C@@H](C(=O)N[C@H]2Cc3ccc(F)c(C(=O)O)c3OB2O)c2cc(F)c(O)c(O)c2Cl)C(=O)C1=O)c1ccncc1 [Example 294, (R)-3-((R)-2-(2-chloro-5-fluoro-3,4-dihydroxyphenyl)-2-(4-(3-(isonicotinamido)propyl)-2,3-dioxopiperazine-1-carboxamido)acetamido)-7-fluoro-2-hydroxy-3,4-dihydro-2H-benzo[e][1,2]oxaborinine-8-carboxylic acid]	< 10		< 1	< 1	< 1
O=C(NCCCN1CCN(C(=O)N[C@H](C(=O)N[C@H]2Cc3ccc(F)c(C(=O)O)c3OB2O)c2cc(F)c(O)c(O)c2Cl)C(=O)C1=O)c1ccnc(F)c1F [Example 299, (R)-3-((S)-2-(2-chloro-5-fluoro-3,4-dihydroxyphenyl)-2-(4-(3-(2,3-difluoroisonicotinamido)propyl)-2,3-dioxopiperazine-1-carboxamido)acetamido)-7-fluoro-2-hydroxy-3,4-dihydro-2H-benzo[e][1,2]oxaborinine-8-carboxylic acid]	10 to 50		2 to 4 (≈ 2.56 to 5.12 µM)	2 to 4 (≈ 2.56 to 5.12 µM)	8 to 16 (≈ 10.2 to 20.5 µM)
O=C(NCCCN1CCN(C(=O)N[C@H](C(=O)N[C@H]2Cc3ccc(F)c(C(=O)O)c3OB2O)c2cc(F)c(O)c(O)c2Cl)C(=O)C1=O)c1cccc(O)c1Cl [Example 302, (R)-3-((S)-2-(4-(3-(2-chloro-3-hydroxybenzamido)propyl)-2,3-dioxopiperazine-1-carboxamido)-2-(2-chloro-5-fluoro-3,4-dihydroxyphenyl)acetamido)-7-fluoro-2-hydroxy-3,4-dihydro-2H-benzo[e][1,2]oxaborinine-8-carboxylic acid]	50 to 250		32 to 64 (≈ 40.3 to 80.6 µM)	> 128	> 128
O=C(NCCCN1CCN(C(=O)NC(C(=O)N[C@H]2Cc3ccc(F)c(C(=O)O)c3OB2O)c2cc(F)c(O)c(O)c2Cl)C(=O)C1=O)c1ccnc(F)c1 (stereo partly drawn) [Example 466, (3R)-3-(2-(2-chloro-5-fluoro-3,4-dihydroxyphenyl)-2-(4-(3-(2-fluoroisonicotinamido)propyl)-2,3-dioxopiperazine-1-carboxamido)acetamido)-7-fluoro-2-hydroxy-3,4-dihydro-2H-benzo[e][1,2]oxaborinine-8-carboxylic acid]	< 10		< 1	2 to 4 (≈ 2.62 to 5.24 µM)	< 1

— patent US20240270762A1, “PENICILLIN-BINDING PROTEIN INHIBITORS” (priority 2021, published 2024)
